Data set [1] concerns Rattus norvegicus. The data set can be described thus: Antipyretic activity against LPS-induced polyphasic febrile response in rats assessed as change in core body temperature at 80 mg/kg, po treated 40 mins prior to LPS addition and measured after 10 mins during phase 1 (reference value: 0.85 deg C). The class given is functional, organism-based. The settings on record: time 50.0 min.

Data set [2] relates to Rattus norvegicus. Nature of the data set: Antipyretic activity against LPS-induced polyphasic febrile response in rats assessed as return of body temperature to background value at 80 mg/kg, po treated 40 mins prior to LPS addition and measured after 245 mins. The class given is functional, organism-based. The following applies: time 285.0 min.
For data set [3], the system named is Rattus norvegicus. The data set can be described thus: Antinociceptive activity in zymosan-induced rat arthritis model assessed as nociceptive response inhibition at 80 mg/kg, ig administered once daily for 7 days and measured 1 hr post-zymosan challenge on day 7 by Randall-Selitto test (reference value: -34.6%). Format: functional. The settings on record: po, 168 h, time 7 day.

Data set [4] has as its system Rattus norvegicus. Nature of the data set: Antinociceptive activity in zymosan-induced rat model of thermal nociceptive hypersensitivity assessed as nociceptive response inhibition at 80 mg/kg, ig administered once daily for 7 days and measured 1 hr post-zymosan challenge on day 7 by hot-plate test (reference value: -42.4%). The following applies: po, 168 h, time 7 day. Format: functional.

Data set [5] concerns Rattus norvegicus. The data set can be described thus: Antipyretic activity against LPS-induced polyphasic febrile response in rats assessed as suppression of rise in core body temperature at 180 mg/kg, po treated 40 mins prior to LPS addition and measured after 10 mins. Format: functional, organism-based. The settings on record: time 50.0 min.
The test system of data set [6] is Rattus norvegicus. Nature of the data set: Antipyretic activity against LPS-induced polyphasic febrile response in rats assessed as change in core body temperature at 180 mg/kg, po treated 40 mins prior to LPS addition and measured after 160 mins during phase 1 (reference value: 0.85 deg C). Format: functional, organism-based. The following applies: time 200.0 min.

The test system of data set [7] is Rattus norvegicus. Nature of the data set: Antipyretic activity against LPS-induced polyphasic febrile response in rats assessed as suppression of rise in core body temperature at 180 mg/kg, po treated 40 mins prior to LPS addition and measured after 200 mins. The class given is functional, organism-based. The settings on record: time 240.0 min.
The test system of data set [8] is Rattus norvegicus. Nature of the data set: Antipyretic activity against LPS-induced polyphasic febrile response in rats assessed as suppression of rise in core body temperature at 180 mg/kg, po treated 40 mins prior to LPS addition and measured after 160 mins relative to control. Format: functional. The settings on record: time 200 min, 3.333 h.
Data set [9] concerns Rattus norvegicus. The data set can be described thus: Antinociceptive activity in zymosan-induced rat arthritis model assessed as nociceptive response inhibition at 180 mg/kg, ig administered once daily for 7 days and measured 1 hr post-zymosan challenge on day 7 by Randall-Selitto test (reference value: -34.6%). Format: functional. The following applies: po, 168 h, time 7 day.

For data set [10], the system named is Rattus norvegicus. Nature of the data set: Antinociceptive activity in zymosan-induced rat model of thermal nociceptive hypersensitivity assessed as nociceptive response inhibition at 180 mg/kg, ig administered once daily for 7 days and measured 1 hr post-zymosan challenge on day 7 by hot-plate test (reference value: -42.4%). The class given is functional. The settings on record: po, 168 h, time 7 day. Background: In hot-plate and tail-flick tests a longer latency is read as antinociception.

Data set [11] is described as follows: Hepatotoxicity in zymosan-induced rat arthritis model assessed as effect on beam structure of liver at 180 mg/kg, ig administered once daily for 7 days by hematoxylin-eosin staining based histological analysis. The class given is toxicity, organism-based. The settings on record: in vivo, po, 168 h, time 7 day.
The nature of data set [12]: Hepatotoxicity in zymosan-induced rat arthritis model assessed as effect on general architecture of liver at 180 mg/kg, ig administered once daily for 7 days by hematoxylin-eosin staining based histological analysis. The class given is toxicity, organism-based. The settings on record: in vivo, po, 168 h, time 7 day.
Data set [13] is described as follows: Hepatotoxicity in zymosan-induced rat arthritis model assessed as effect on sinusoids elongation at 180 mg/kg, ig administered once daily for 7 days by hematoxylin-eosin staining based histological analysis. The class given is toxicity, organism-based, Liver. The settings on record: in vivo, po, 168 h, time 7 day.
Data set [14] can be described thus: Hepatotoxicity in zymosan-induced rat arthritis model assessed as effect on sinusoids arrangement at 180 mg/kg, ig administered once daily for 7 days by hematoxylin-eosin staining based histological analysis. Format: toxicity, organism-based, Liver. The following applies: in vivo, po, 168 h, time 7 day.
Data set [15] in a line: Hepatotoxicity in zymosan-induced rat arthritis model assessed as change in hepatocyte shape at 180 mg/kg, ig administered once daily for 7 days by hematoxylin-eosin staining based histological analysis. Format: toxicity, organism-based, Liver. The following applies: in vivo, po, 168 h, time 7 day.
Data set [16] is described as follows: Hepatotoxicity in zymosan-induced rat arthritis model assessed as disruption of hepatocyte membrane at 180 mg/kg, ig administered once daily for 7 days by hematoxylin-eosin staining based histological analysis. The class given is toxicity, organism-based, Liver. The following applies: in vivo, po, 168 h, time 7 day.
Data set [17] is described as follows: Hepatotoxicity in zymosan-induced rat arthritis model assessed as change in hepatocyte nucleus size at 180 mg/kg, ig administered once daily for 7 days by hematoxylin-eosin staining based histological analysis. Format: toxicity, organism-based, Liver. The following applies: in vivo, po, 168 h, time 7 day.
Data set [18] in a line: Hepatotoxicity in zymosan-induced rat arthritis model assessed as change in hepatocyte karyoplasm at 180 mg/kg, ig administered once daily for 7 days by hematoxylin-eosin staining based histological analysis. The class given is toxicity, organism-based, Liver. The following applies: in vivo, po, 168 h, time 7 day.
Data set [19] can be described thus: Hepatotoxicity in zymosan-induced rat arthritis model assessed as appearance of vacuoles in hepatocyte cytoplasm at 180 mg/kg, ig administered once daily for 7 days by hematoxylin-eosin staining based histological analysis. Format: toxicity, organism-based, Liver. The following applies: in vivo, po, 168 h, time 7 day.
Data set [20] can be described thus: Hepatotoxicity in zymosan-induced rat arthritis model assessed as change in hepatocyte cytoplasmic appearance at 180 mg/kg, ig administered once daily for 7 days by hematoxylin-eosin staining based histological analysis. Format: toxicity, organism-based, Liver. The following applies: in vivo, po, 168 h, time 7 day.
Data set [21] can be described thus: Hepatotoxicity in zymosan-induced rat arthritis model assessed as change in shape of liver central veins at 180 mg/kg, ig administered once daily for 7 days by hematoxylin-eosin staining based histological analysis. The class given is toxicity, organism-based. The settings on record: in vivo, po, 168 h, time 7 day.
A short description of data set [22]: Hepatotoxicity in zymosan-induced rat arthritis model assessed as change in shape of liver portal tracts at 180 mg/kg, ig administered once daily for 7 days by hematoxylin-eosin staining based histological analysis. Format: toxicity, organism-based. The following applies: in vivo, po, 168 h, time 7 day.

Activity calls are given as the source filed them. The rule behind the calls is not given here.

The ΔTm is the shift of the melting midpoint relative to a reference. As usually defined, the inhibition in vivo is how much of the control response was suppressed.

Take `CC(=O)Nc1ccc(O)cc1` [ACETAMINOPHEN]: the ΔTm in the data set on Rattus norvegicus [1] was 0.34 °C. Further, in the data set with Rattus norvegicus [2], the outcome was Active. Besides, the inhibition in vivo at 80 mg/kg in the data set with Rattus norvegicus [3] came to 28.5%; in the data set on Rattus norvegicus [4], 53%.
On to `CCCCCCCC(=O)Nc1ccc(OCC(=O)NCCO)cc1`, for which the result in the data set on Rattus norvegicus [5] and in the data set with Rattus norvegicus [7] was Active. Also, the thermal shift (ΔTm) in the data set on Rattus norvegicus [6] is 0.28 °C. Further, the “fold change (FC)” value with Rattus norvegicus [8] is on record as 3. Also, the inhibition in vivo at 180 mg/kg in the data set with Rattus norvegicus [9] was found to be 48.1%; in the data set with Rattus norvegicus [10], 12.3%. The Activity entry in data set [11], in data set [12], in data set [13], in data set [14], in [15] and in data set [16] was “Non-toxic” in each case. The Activity result in data set [17], in data set [18], in data set [19], in [20], in [21] and in data set [22] was “Non-toxic” in each case.

The record behind these values is ChEMBL document CHEMBL6114949, “Synthesis and physiological effects of new 4-aminophenol derivatives as paracetamol analogues” (Bioorg Med Chem Lett, 2025).
